Results on 14 compounds are retold here after patent US20260027221A1, “Targeted Pyrrolobenzodiazapine Conjugates” (BeOne Medicines I GmbH, priority 2023, published 2026).

The test system of test [1] is A375 cells. Kind of test: Compounds cellular killing in A375 cancer line (Cell Titer-Glo, 6 days). The test is classed as cell-based, human. The note with it: Homo sapiens, A-375, 144 h, 6 days incubation, cell viability by Cell Titer-Glo. On the procedure:
A375 (ATCC, CRL-1619). […] The base medium for A375 is DMEM, high glucose, GlutaMAX™ Supplement (Gibco, 10566024). To make the complete growth medium, fetal bovine serum was added to the base mediumat a final concentration of 10% (Gibco, 10099-141C). The cell line was grown in a humidified 5% CO2 atmosphere at 37° C., and was regularly tested for the presence of mycoplasma with MycoAlert™ PLUS Mycoplasma Detection Kit (Lonza, LT07-710).
(§1) Payload direct killing by compounds 1-1 to 1-22 was assessed in A375 and Calu-6 cancer cell lines. Cells were seeded at 1E3/well (A375) 2E3/well (Calu-6) into 96-well plates (Greiner: 655090), 100 μL/well, and incubated at 37° C., 5% CO2, overnight. Fresh growth medium was added containing varying concentrations of compounds, 50 μL/well, and incubated at 37° C., 5% CO2, for 6 days. The cell viability detected by Cell Titer-Glo (Promega, G7573), 70 μL/well. The plates were allowed to incubate at room temperature for 10 minutes to stabilize the luminescent signal. The plates were analyzed with a microplate reader.
For orientation: In ATP-based viability assays light output follows the ATP content of the culture.

Test [2] concerns Calu-6 cells. Kind of test: Compounds cellular killing in Calu-6 cancer line (Cell Titer-Glo, 6 days). The following applies: Homo sapiens, Calu-6, 144 h, 6 days incubation, cell viability by Cell Titer-Glo. It is filed as cell-based, human. On the procedure:
Calu-6 (ATCC, HTB-56). […] The base medium for Calu-6 is Eagle's Minimum Essential Medium (ATCC, 30-2003). To make the complete growth medium, fetal bovine serum was added to the base mediumat a final concentration of 10% (Gibco, 10099-141C). The cell line was grown in a humidified 5% CO2 atmosphere at 37° C., and was regularly tested for the presence of mycoplasma with MycoAlert™ PLUS Mycoplasma Detection Kit (Lonza, LT07-710).
as §1

What is called EC50 is the concentration giving half of the maximal effect.

As for `COc1cc2c(cc1OCc1cccc(COc3cc4c(cc3OC)C(=O)N3CC5(CC5)C[C@H]3C=N4)c1)N=C[C@@H]1CC3(CC3)CN1C2=O` [Compound 1-8, (11aS,11a″S)-8,8″-((1,3-phenylenebis(methylene))bis(oxy))bis(7-methoxy-1,11a-dihydro-3H,5H-spiro[benzo[e]pyrrolo[1,2-a][1,4]diazepine-2,1′-cyclopropan]-5-one)], in test [1], the EC50 stood at 0.029 nM and the Emax is 99.2%. In test [2], the midpoint of the response, the EC50, lay at 0.005 nM and the Emax came out at 98.4%.
In test [1], `C=C1C[C@H]2C=Nc3cc(OCCN(C)CCOc4cc5c(cc4OC)C(=O)N4CC(=C)C[C@H]4C=N5)c(OC)cc3C(=O)N2C1` [Compound 1-22, (11aS,11a′S)-8,8′-(((methylazanediyl)bis(ethane-2,1-diyl))bis(oxy))bis(7-methoxy-2-methylene-1,2,3,11a-tetrahydro-5H-benzo[e]pyrrolo[1,2-a][1,4]diazepin-5-one)] displayed an EC50 of 5.5 nM and an Emax of 97.3%. Further, in test [2], the response was half-maximal at 1.3 nM (EC50) and the Emax came out at 99.2%.
In test [1], `COc1cc2c(cc1OCC13CC(COc4cc5c(cc4OC)C(=O)N4CC6(CC6)C[C@H]4C=N5)(C1)C3)N=C[C@@H]1Cc3ccccc3CN1C2=O` [Compound 1-11, (S)-2-methoxy-3-((3-((((S)-7-methoxy-5-oxo-5,11a-dihydro-1H,3H-spiro[benzo[e]pyrrolo[1,2-a][1,4]diazepine-2,1′-cyclopropan]-8-yl)oxy)methyl)bicyclo[1.1.1]pentan-1-yl)methoxy)-7,12-dihydrobenzo[5,6][1,4]diazepino[1,2-b]isoquinolin-14(6aH)-one] gave an EC50 of 6.11 nM and an Emax of 99.9%. Also, in test [2], a half-maximal effect (EC50) was put at 0.34 nM and the Emax is 99.4%.
The like results for `COc1cc2c(cc1OCCCCCOc1cc3c(cc1OC)C(=O)N1CC4(CC4)C[C@H]1CN3)NC[C@@H]1Cc3ccccc3CN1C2=O` [Compound 1-4, (S)-2-methoxy-3-((5-(((S)-7-methoxy-5-oxo-5,10,11,11a-tetrahydro-1H,3H-spiro[benzo[e]pyrrolo[1,2-a][1,4]diazepine-2,1′-cyclopropan]-8-yl)oxy)pentyl)oxy)-6,6a,7,12-tetrahydrobenzo[5,6][1,4]diazepino[1,2-b]isoquinolin-14(5H)-one] were, in that order, 0.14 nM, 90.6%, 0.077 nM and 94.9%.
For the compound `COc1ccc(C2=CN3C(=O)c4cc(OC)c(OCCCCCOc5cc6c(cc5OC)C(=O)N5CCC7(CC7)C[C@H]5C=N6)cc4NC[C@@H]3C2)cc1` [Compound 1-6, (S)-2-methoxy-3-((5-(((S)-7-methoxy-2-(4-methoxyphenyl)-5-oxo-5,10,11,11a-tetrahydro-1H-benzo[e]pyrrolo[1,2-a][1,4]diazepin-8-yl)oxy)pentyl)oxy)-6a,7,9,10-tetrahydro-12H-spiro[benzo[e]pyrido[1,2-a][1,4]diazepine-8,1′-cyclopropan]-12-one], in test [1], the concentration giving a half-maximal response (EC50) worked out at 0.067 nM and the Emax worked out at 97.5%. Moreover, in test [2], the EC50 is 0.033 nM and the Emax is 97.6%.
Regarding `COc1cc2c(cc1OCCCCCOc1cc3c(cc1OC)C(=O)N1Cc4ccccc4C[C@H]1CN3)N=C[C@@H]1CC3(CC3)CN1C2=O` [Compound 1-2, (S)-2-methoxy-3-((5-(((S)-7-methoxy-5-oxo-5,11a-dihydro-1H,3H-spiro[benzo[e]pyrrolo[1,2-a][1,4]diazepine-2,1′-cyclopropan]-8-yl)oxy)pentyl)oxy)-6,6a,7,12-tetrahydrobenzo[5,6][1,4]diazepino[1,2-b]isoquinolin-14(5H)-one], the concentration giving a half-maximal response (EC50) in test [1] was 0.118 nM; in test [2] it was 0.052 nM. For the same compound, the Emax in test [1] came to 98%; in test [2] it was 97.6%.
For the compound `COc1cc2c(cc1OCCCCCOc1cc3c(cc1OC)C(=O)N1CC4(CC4)C[C@H]1C=N3)N=C[C@@H]1Cc3ccccc3CN1C2=O` [Compound 1-1, (S)-2-methoxy-3-((5-(((S)-7-methoxy-5-oxo-5,11a-dihydro-1H,3H-spiro[benzo[e]pyrrolo[1,2-a][1,4]diazepine-2,1′-cyclopropan]-8-yl)oxy)pentyl)oxy)-7,12-dihydrobenzo[5,6][1,4]diazepino[1,2-b]isoquinolin-14(6aH)-one], the EC50 was 0.005 nM in test [1] and 0.002 nM in test [2]. Also, the Emax was found to be 99.8% in test [1] and 99.5% in test [2].
The like results for `COc1cc2c(cc1OCCCOc1cc3c(cc1OC)C(=O)N1CC4(CC4)C[C@H]1C=N3)N=C[C@@H]1Cc3ccccc3CN1C2=O` [Compound 1-14, (S)-2-methoxy-3-(3-(((S)-7-methoxy-5-oxo-5,11a-dihydro-1H,3H-spiro[benzo[e]pyrrolo[1,2-a][1,4]diazepine-2,1′-cyclopropan]-8-yl)oxy)propoxy)-7,12-dihydrobenzo[5,6][1,4]diazepino[1,2-b]isoquinolin-14(6aH)-one] were, in that order, 0.033 nM, 0.01 nM, 98.9% and 99.2%.
The like results for `COc1cc2c(cc1OCC13CC(COc4cc5c(cc4OC)C(=O)N4Cc6ccccc6C[C@H]4CN5)(C1)C3)N=C[C@@H]1CC3(CC3)CN1C2=O` [Compound 1-12, (S)-2-methoxy-3-((3-((((S)-7-methoxy-5-oxo-5,11a-dihydro-1H,3H-spiro[benzo[e]pyrrolo[1,2-a][1,4]diazepine-2,1′-cyclopropan]-8-yl)oxy)methyl)bicyclo[1.1.1]pentan-1-yl)methoxy)-6,6a,7,12-tetrahydrobenzo[5,6][1,4]diazepino[1,2-b]isoquinolin-14(5H)-one] were, in that order, 297 nM, 108 nM, 97.5% and 99.4%.
In test [1], `COc1cc2c(cc1OCCCCCOc1cc3c(cc1OC)C(=O)N1CC4(CC4)C[C@H]1C=N3)N=C[C@@H]1CCCCN1C2=O` [Compound 1-16, (S)-7-methoxy-8-((5-(((S)-2-methoxy-12-oxo-6a,7,8,9,10,12-hexahydrobenzo[e]pyrido[1,2-a][1,4]diazepin-3-yl)oxy)pentyl)oxy)-1,11a-dihydro-3H,5H-spiro[benzo[e]pyrrolo[1,2-a][1,4]diazepine-2,1′-cyclopropan]-5-one] displayed a concentration for a half-maximal effect (EC50) of 0.146 nM and an Emax of 89.6%. In test [2], this compound displayed a 50% effective concentration (EC50) of 0.038 nM and an Emax of 92.3%.
The like results for `COc1cc2c(cc1OCCCCCOc1cc3c(cc1OC)C(=O)N1Cc4ccccc4C[C@H]1C=N3)N=C[C@@H]1CC3(CCN1C2=O)CC3` [Compound 1-20, (S)-2-methoxy-3-((5-(((S)-2-methoxy-12-oxo-6a,9,10,12-tetrahydro-7H-spiro[benzo[e]pyrido[1,2-a][1,4]diazepine-8,1′-cyclopropan]-3-yl)oxy)pentyl)oxy)-7,12-dihydrobenzo[5,6][1,4]diazepino[1,2-b]isoquinolin-14(6aH)-one] were, in that order, 0.064 nM, 95.9%, 0.016 nM and 98.3%.
The like results for `COc1cc2c(cc1OCc1cccc(COc3cc4c(cc3OC)C(=O)N3CC5(CC5)C[C@H]3C=N4)n1)N=C[C@@H]1CC3(CC3)CN1C2=O` [Compound 1-17, (11aS,11a″S)-8,8″-((pyridine-2,6-diylbis(methylene))bis(oxy))bis(7-methoxy-1,11a-dihydro-3H,5H-spiro[benzo[e]pyrrolo[1,2-a][1,4]diazepine-2,1′-cyclopropan]-5-one)] were, in that order, 0.017 nM, 99.9%, 0.005 nM and 99.7%.
In test [1], `C=C1C[C@H]2C=Nc3cc(OCCNCCOc4cc5c(cc4OC)C(=O)N4CC(=C)C[C@H]4C=N5)c(OC)cc3C(=O)N2C1` [Compound 1-21, (11aS,11a'S)-8,8′-((azanediylbis(ethane-2,1-diyl))bis(oxy))bis(7-methoxy-2-methylene-1,2,3,11a-tetrahydro-5H-benzo[e]pyrrolo[1,2-a][1,4]diazepin-5-one)] came in with a concentration for a half-maximal effect (EC50) of 4.2 nM and an Emax of 97.8%. In test [2], this compound gave an EC50 of 1.2 nM and an Emax of 99.3%.
In test [1], `COc1cc2c(cc1OCc1cccc(COc3cc4c(cc3OC)C(=O)N3CC5(CC5)C[C@H]3CN4)c1)NC[C@@H]1CC3(CC3)CN1C2=O` [Compound 1-10] registered an EC50 of over 1 nM and an Emax of 42%. In test [2], it took 0.358 nM to reach a half-maximal effect (EC50) and the Emax was 84.7%.
